Reference: US20130156795A1, “METHODS FOR INHIBITION OF CELL PROLIFERATION, SYNERGISTIC TRANSCRIPTION MODULES AND USES THEREOF” (priority 2009, published 2013)
Entries after “also recorded” stand apart in the source; their conditions may differ. Read-outs that look alike come from different tables or passages of the source.

How the values were obtained:
GBM-BTICs and SNB19 = test: qRT-PCR of C/EBPβ and Stat3 mRNA after lentivirus-mediated shRNA silencing; type: cell-based, human
Protocol: For loss-of-function experiments, lentivirus-mediated shRNA silencing of C/EBPβ and Stat3 in the human glioma cell line SNB19 and in early-passage cultures of tumor cells derived from primary GBM was performed. The latter were grown in serum-free conditions, in the presence of the growth factors bFGF and EGF. These culture conditions preserve the tumor stem cell-like features of GBM-derived cells and propel the formation of GBM-like tumors after intracranial transplantation in immunodeficient mice {Lee, 2006; herein incorporated by reference in its entirety} (GBM-derived brain tumor initiating cells, GBM-BTICs, see FIG. 22 for the analysis of their tumor-initiating capacity). At least three replicates for each condition were produced and a global dataset of 89 individual samples was generated, including 55 knockdown experiments in human glioma cells and 34 ectopic expression experiments in mouse NSCs. Gene expression profiles of human samples were produced with the HT-12v3 Illumina BeadArrays (including 24,385 human genes), while murine samples were profiled on mouse-6V2 Illumina BeadArrays (including 20,311 mouse genes). 14,857 murine genes were mapped to human orthologs, using the homologene database (http://www.ncbi.nlm.nih.gov/homologene; herein incorporated by reference in its entirety). Of the 149 genes in the MGES, 118 could be mapped to murine genes represented on the mouse-6V2 array.
Reciprocal changes followed ectopic expression of the two TFs in C17.2 and NSC cells (Table 10) qRT-PCR values and microarray-based measurements were highly correlated for Stat3 but not for C/EBPβ mRNA (FIG. 24). Moreover, the Stat3C and C/EBPβ constructs used in the ectopic expression experiments in mouse NSCs lack the 3′ UTR sequence targeted by the Illumina probes. Thus, the qRT-PCR values for C/EBPβ and Stat3 were used, rather than the microarray measurements, as more accurate read-outs for their mRNA expression across the 89 samples.
RNA was prepared with RiboPure kit (Ambion), and used for first strand cDNA synthesis using random primers and SuperScriptll Reverse Transcriptase (Invitrogen). QRT-PCR was performed using Power SYBR Green PCR Master Mix (Applied Biosystems). QRT-PCR results were analyzed by the ΔΔCT method (Livak & Schmittgen, Methods 25:402, 2001; herein incorporated by reference in its entirety) using GAPDH or 18S as housekeeping genes.
Lentiviral expression vectors carrying shRNAs were purchased from Sigma. To generate lentiviral particles, each shRNA expression plasmid was co-transfected with pCMV-dR8.91 and pCMV-MD2.G vectors into human embryonic kidney 293T cells using Fugene 6 (Roche). Lentiviral infections were performed as described {Zhao, 2008; herein incorporated by reference in its entirety}.

SNB19 glioma cells = test: Intracranial xenograft of shRNA-transduced SNB19 glioma cells in immunocompromised mice; type: in vivo, mouse; conditions: SNB19 xenografted into striatum, 120 days from injection
Protocol: Next, it was considred whether loss of C/EBPβ and Stat3 in glioma cells reduced tumor aggressiveness in vitro and in vivo. […] Then, the impact of C/EBPβ and Stat3 knockdown for brain tumorigenesis in vivo was determined. SNB19 cells transduced with non-targeting control shRNA lentivirus or shRNA targeting C/EBPβ and/or Stat3 were xenografted into the striatum of immunocompromised mice. […] However, only one of four mice from the shC/EBPβ and one of five mice from the shC/EBPβ+shStat3 groups developed tumors after 120 days from the injection (FIG. 22B). […] Conversely, the single tumor in the shC/EBPβ+shStat3 group grew well circumscribed and was less angiogenic.
Intracranial injection of SNB19 glioma cell line and GBM-derived BTICs was performed in 6-8 weeks NOD/SCID mice (Charles River laboratories) in accordance with guidelines of the International Agency for Reserch on Cancer's Animal Care and Use Committee. Briefly, 48 h after lentiviral infection, 2×10^5 SNB19 or 3×10^5 BTICs were injected 2 mm lateral and 0.5 mm anterior to the bregma, 3 mm below the skull. Mice were monitored daily and sacrificed when neurological symptoms appeared. Kaplan-Meier survival curve of the mice injected with SNB19 glioma cells was generated using the DNA Statview software package (AbacusConcepts, Berkeley Calif.).

[1] = system: SNB19 human glioma cell line; test: Gene expression profiling and GSEA after shRNA silencing of MR-TFs in SNB19; type: cell-based; conditions: shRNA knock-down in human glioma cells; for Enrichment of ATF2 regulon on TF-knock-down gene expression profile by GSEA, nES: Control TF regulon ATF2 (negative control), size 386; for Enrichment of SOX15 regulon on TF-knock-down gene expression profile by GSEA, nES: Control TF regulon SOX15 (negative control), size 213; for Enrichment of ZNF277 regulon on TF-knock-down gene expression profile by GSEA, nES: Control TF regulon ZNF277 (negative control), size 238; for Enrichment of ZNF500 regulon on TF-knock-down gene expression profile by GSEA, nES: Control TF regulon ZNF500 (negative control), size 469; for Enrichment of the MGES on genes downregulated after MR-TF knock-down, nES: MGES Enrich.; for Enrichment of C/EBPβ regulon on TF-knock-down gene expression profile by GSEA, nES: Module TF regulon C/EBPβ, size 209; for Enrichment of FosL2 regulon on TF-knock-down gene expression profile by GSEA, nES: Module TF regulon FosL2, size 403; for Enrichment of Runx1 regulon on TF-knock-down gene expression profile by GSEA, nES: Module TF regulon Runx1, size 490; for Enrichment of Stat3 regulon on TF-knock-down gene expression profile by GSEA, nES: Module TF regulon Stat3, size 366; for Enrichment of bHLH-B2 regulon on TF-knock-down gene expression profile by GSEA, nES: Module TF regulon bHLH-B2, size 226
Description: To test whether specific gene signatures were globally differentially regulated, we used the Gene Set Enrichment analysis method (A31; herein incorporated by reference in its entirety). In this method, the Kolmogorov-Smirnoff test is used to determine whether two gene lists are statistically correlated. In this case, one list includes genes on the microarray expression profile dataset, ranked by their differential expression statistics across two conditions (e.g. ectopically expressed Stat3C/C/EBPβ vs. control), from most over- to most underexpressed. The other list contains non-ranked genes in a specific signature (e.g. mesenchymal). This is very useful to detect, for instance, situations where signature genes can be differentially expressed as a whole, even though the fold-change can be small for each gene in isolation. In this case, a gene-by-gene test, such as a T-test, cannot reveal statistical significance. The algorithm was set to implement weighted scoring scheme and the enrichment score significance was assessed by 1000 permutation tests.
Next, lentivirus-mediated shRNA silencing of the five TFs (C/EBPβ, Stat3, bHLH-B2, FosL2, and Runx1) was performed in the SNB19 human glioma cell line, followed by gene expression profiling using HT-12v3 Illumina BeadArrays in triplicate.
RNA amplification for Array analysis was performed with Illumina TotalPrep RNA Amplification Kit (Ambion). 1.5 μg of amplified RNA was hybridized on Illumina HumanHT-12v3 or MouseWG-6 expression BeadChip according to the manufacturer's instructions. Hybridization data was obtained with an iScan BeadArray scanner (Illumina) and pre-processed by variance stabilization and robust spline normalization implemented in the lumi package under the R-system (Du, P., Kibbe, W. A. and Lin, S. M., (2008) ‘lumi: a pipeline for processing Illumina microarray’, Bioinformatics 24(13):1547-1548; herein incorporated by reference in its entirety).

T98G glioma cell line = test: ZNF238 and ZNF238-target mRNA expression by quantitative PCR in T98G cells; type: cell-based, human
Protocol: FIG. 12A, Graphical representation of the promoter of ZNF238. The region between −1800 and −3400 contains stretches of CpG islands. FIG. 12B, 5-Azacytidine induces expression of ZNF238. T98G cells were treated with 5-Azacytidine at the indicated concentrations for 3 days. Expression of ZNF238 was analyzed by quantitative PCR. […] HPRT was used as control for normalization.
Computational and expression predictions converged towards the identification of a highly vulnerable structure of the regulatory region controlling ZNF238 expression. The ZNF238 promoter/enhancer is unusually rich in evolutionarily conserved CpG islands (FIG. 12A), which are targeted by DNA methyltransferases leading to gene expression silencing. Methylation of regulatory DNA regions is a common mechanism in human cancer and is implicated in the constitutive silencing of tumor suppressor genes in malignant glioma (109; herein incorporated by reference in its entirety). Thus, whether promoter methylation induces silencing of ZNF238 was considered. Pharmacological inhibition of methylation with an inhibitor of DNA methyltransferases (5-Azacytidine) elevated the expression of ZNF238 mRNA in the T98G glioma cell line (FIG. 12B) and repressed the expression of SerpineH1 and CH3IRL1 (FIG. 12C), two mesenchymal genes predicted as ZNF238 targets by ARACNe (FIG. 1).

[2] = system: C/EBPbeta-luciferase reporter; test: C/EBPbeta-luciferase reporter screen in SNB19 glioma cells; type: cell-based, human
Protocol: SNB19 human glioma cells were stably transfected with the C/EBPbeta-driven luciferase plasmid (FIG. 36). Several clones were isolated and propagated. […] Cells were transfected with control siRNAs or siRNA oligonucleotides targeting C/EBPbeta (for example, SEQ ID NO: 228 or SEQ ID NO: 229). The control siRNA sequence is the Dharmacon ON-TARGETpIus Non-targeting Pool (Cat#: D-001810-10-20). Luciferase activity was measured on a luminometer and the results are shown after normalization with renilla.
A multimerized C/EBPbeta-luciferase reporter was stably introduced in SNB19 and a screening of ˜9,800 compounds was done to identify positive candidates.

phospho-STAT3 = test: Inhibition of active STAT3 (phospho-STAT3); type: cell-based, human

Molecule: shStat3: lentiviral shRNA specific for Stat3 purchased from Sigma (TRCN0000020843, SEQ ID NO: 224) (CCGGGCAAAGAATCACATGCCACTTCTCGAGAAGTGGCATGTGATTCTTTGCTTTTT)
- C/EBPβ mRNA level relative to non-target shRNA transduced cells (fold ratio, median ± MAD) (GBM-BTICs and SNB19): 0.87 ± 0.111
- Stat3 mRNA level relative to non-target shRNA transduced cells (fold ratio, median ± MAD) (GBM-BTICs and SNB19): 0.205 ± 0.052
- Stat3 mRNA level relative to non-target shRNA transduced cells (fold ratio, median ± MAD) (GBM-BTICs and SNB19; listed as Stat3-shRNA): 0.205
- mice that developed tumors (SNB19 glioma cells): all mice
- Enrichment of ATF2 regulon on TF-knock-down gene expression profile by GSEA, nES [1]: −0.24
- Enrichment of SOX15 regulon on TF-knock-down gene expression profile by GSEA, nES [1]: −2.81
- Enrichment of ZNF277 regulon on TF-knock-down gene expression profile by GSEA, nES [1]: −0.55
- Enrichment of ZNF500 regulon on TF-knock-down gene expression profile by GSEA, nES [1]: 0.20
- Enrichment of the MGES on genes downregulated after MR-TF knock-down, nES [1]: 3.59
- Enrichment of C/EBPβ regulon on TF-knock-down gene expression profile by GSEA, nES [1]: 2.43
- Enrichment of FosL2 regulon on TF-knock-down gene expression profile by GSEA, nES [1]: 4.98
- Enrichment of Runx1 regulon on TF-knock-down gene expression profile by GSEA, nES [1]: 2.41
- Enrichment of Stat3 regulon on TF-knock-down gene expression profile by GSEA, nES [1]: 1.78
- Enrichment of bHLH-B2 regulon on TF-knock-down gene expression profile by GSEA, nES [1]: 0.59

Molecule: Nc1ncn([C@@H]2O[C@H](CO)[C@@H](O)[C@H]2O)c(=O)n1 [5-Azacytidine]
- expression of CH3IRL1 (T98G glioma cell line): repressed
- expression of SerpineH1 (T98G glioma cell line): repressed
- expression of ZNF238 mRNA (T98G glioma cell line; 3 days, quantitative PCR): induces; also recorded: elevated
- Expression of selected ZNF238 targets (T98G glioma cell line; HPRT normalization (FIG. 12C)): down-regulated

Molecule: O=c1[nH]cc(F)c(=O)[nH]1 [5-fluorouracil]
- inhibition of C/EBPb activity, C/EBPb gene reporter assay ([2]; reporter activity at 48 hr, various dosages (FIG. 38A, 39A)): inhibition

Molecule: shC/EBPβ: lentiviral shRNA specific for C/EBPβ purchased from Sigma (TRCN0000007442, SEQ ID NO: 225) (CCGGCGACTTCCTCTCCGACCTCTTCTCGAGAAGAGGTCGGAGAGGAAGTCGTTTTT)
- C/EBPβ mRNA level relative to non-target shRNA transduced cells (fold ratio, median ± MAD) (GBM-BTICs and SNB19): 0.26 ± 0.119
- Stat3 mRNA level relative to non-target shRNA transduced cells (fold ratio, median ± MAD) (GBM-BTICs and SNB19): 1.13 ± 0.43
- C/EBPβ mRNA level relative to non-target shRNA transduced cells (fold ratio, median ± MAD) (GBM-BTICs and SNB19; listed as C/EBPβ shRNA): 0.26
- mice that developed tumors (SNB19 glioma cells): one of four
- Enrichment of ATF2 regulon on TF-knock-down gene expression profile by GSEA, nES [1]: 1.54
- Enrichment of SOX15 regulon on TF-knock-down gene expression profile by GSEA, nES [1]: 0.28
- Enrichment of ZNF277 regulon on TF-knock-down gene expression profile by GSEA, nES [1]: −0.79
- Enrichment of ZNF500 regulon on TF-knock-down gene expression profile by GSEA, nES [1]: −0.24
- Enrichment of the MGES on genes downregulated after MR-TF knock-down, nES [1]: 3.23
- Enrichment of C/EBPβ regulon on TF-knock-down gene expression profile by GSEA, nES [1]: 1.91
- Enrichment of FosL2 regulon on TF-knock-down gene expression profile by GSEA, nES [1]: 3.83
- Enrichment of Runx1 regulon on TF-knock-down gene expression profile by GSEA, nES [1]: 0.55
- Enrichment of Stat3 regulon on TF-knock-down gene expression profile by GSEA, nES [1]: 2.49
- Enrichment of bHLH-B2 regulon on TF-knock-down gene expression profile by GSEA, nES [1]: 1.74

Molecule: COc1cc([C@@H]2c3cc4c(cc3[C@@H](O[C@@H]3O[C@@H]5CO[C@@H](C)O[C@H]5[C@H](O)[C@H]3O)[C@H]3COC(=O)[C@H]23)OCO4)cc(OC)c1O [etoposide]
- inhibition of CCAAT/enhancer-binding protein (CEBP) luciferase reporter ([2]; pilot screen, microsource library (2000 compounds), SNB19): inhibit
- inhibition of the active form of STAT3 (phospho-STAT3) (phospho-STAT3): inhibit
